# Assay results: US6481154B1, “Method of large-scale propagation of trees of genus Swietenia” (Sumitomo Forestry Co., Ltd., priority 2000, dated 2002)
# System: terminal buds of Swietenia macrophylla
# Assay: Induction of multiple shoots from terminal buds on modified B5 medium
# Assay type: cell-based
# Conditions: IBA 0 mg/l
# Experimental: Terminal buds were excised from mature trees of Swietenia macrophylla and subjected to surface sterilization in 70% ethanol for 30 seconds and then in 2% sodium hypochlorite for 6 minutes, washed several times with sterilized water and dried on a sterilized filter paper.
# To a modified B5 medium (which was a B5 medium amounts of all the components were each made a half were added 30 g/l of sucrose, and 0 to 0.02 mg/l of IBA and 0.02 to 1.0 mg/l of BAP as plant growth regulators, followed by pH adjustment to 5.7 and sterilization. The medium so prepared was used as a multiple shoots-inducing medium, and was used at a culturing temperature of 26±2° C. under illumination of fluorescent lamps for 16 hours per day (3,000 to 9,000 Lux). One to 3 months after the start of culturing, multiple shoots were induced.
smiles,measurement,setting,value
"c1ccc(CNc2ncnc3[nH]cnc23)cc1 [BAP, benzylaminopurine]",Number of formed multiple shoots/Number of total tested terminal buds,BAP 0.02 mg/l,1/20
same,Number of formed multiple shoots/Number of total tested terminal buds,BAP 0.2 mg/l,5/20
same,Number of formed multiple shoots/Number of total tested terminal buds,BAP 1.0 mg/l,8/20
